How the values were obtained:
[1] = Solubility of folic acid in water and 0.1 M sodium bicarbonate; type: physicochemical
Procedure: FIGS. 20 and 21 show several examples of these hydrogels. A-4 is a hydrogel of 2% sucrose stearate/sucrose distearate containing 2.5 mg/ml of folic acid. […] F-4 is a similar hydrogel containing 1 mM curcumin formed from 2% sucrose stearate/sucrose distearate in 0.1M sodium bicarbonate again after heating to 45 degrees C., vortexing to distribute the curcumin and letting the hydrogel form upon cooling to room temperature.

[2] = Curcumin concentration in tetradecylmaltoside hydrogel versus solubility in water; type: physicochemical
Excerpt: Curcumin was also used in the preparation of hydrogels. Curcumin is a natural product isolated from the root of Curcuma longa from which the spice turmeric is obtained. It has been reported to have potent antioxidative, anti-inflammatory and antiseptic properties, but has extremely low solubility in water and poor bioavailability which limits its pharmaceutical use. By encapsulating curcumin in a hydrogel composed of 2% tetradecylmaltoside a concentration of the compound in the gel can be obtained which is about 33,000 times higher than the solubility of curcumin in water, for example, 1×10^−3 M in the hydrogel vs. 3×10^−8 M in water. The resulting gels are yellow or yellow-orange in color depending on whether sodium bicarbonate is present during the formulation of the gel (see FIG. 13). FIG. 13 is a pictorial representation showing hydrogels of curcumin. Sample E-2 is a hydrogel composed of 2% tetradecylmaltoside and 1 mM curcumin. Sample F-2 is a hydrogel composed of 2% tetradecylmaltoside, 1 mM curcumin, and 0.1 M sodium bicarbonate.

| solubility of folic acid ([1]; 0.1 M sodium bicarbonate, 2.5 mg/ml for sample B-5) | solubility of folic acid ([1]; water, 2.5 mg/ml for sample A-5) | concentration of curcumin in the hydrogel ([2]; 2% tetradecylmaltoside hydrogel) | concentration in gel relative to solubility in water ([2]; 2% tetradecylmaltoside hydrogel vs water) | Compound |
| --- | --- | --- | --- | --- |
| completely dissolves | poorly soluble |  |  | Nc1nc2ncc(CNc3ccc(C(=O)N[C@@H](CCC(=O)O)C(=O)O)cc3)nc2c(=O)[nH]1 [Folic acid, folic acid] |
|  |  | 1000 µM | about 33,000 times | COc1cc(/C=C/C(=O)CC(=O)/C=C/c2ccc(O)c(OC)c2)ccc1O [curcumin] |

Source: US8470370B2, “Controlled release formulations” (Aegis Therapeutics, LLC, priority 2007, dated 2013)
